# Measurements as given in PubChem BioAssay (NCI).
#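 Dose response: 5 concentrations. Exposure: 48 h. Format: 96-well plates. Endpoint: linear interpolation; highest concentration if not reached. The concentration for full growth arrest is given as TGI.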 Where a SMILES comes first, the peptide text is derived from it. The star is where a group is joined. Cbz = O=C(OCc1ccccc1)*
# What was measured:
# Experiment in all cases: growth of human tumour cells (NCI), 48 h
# NCI-H23 lung = tested on: NCI-H23 lung
# SK-MEL-5 melanoma = tested on: SK-MEL-5 melanoma
# BT-549 breast = tested on: BT-549 breast
# U251 CNS = tested on: U251 CNS
# PC-3 prostate = tested on: PC-3 prostate
# SNB-75 CNS = tested on: SNB-75 CNS
# MOLT-4 leukemia = tested on: MOLT-4 leukemia
# SF-268 CNS = tested on: SF-268 CNS
# SF-295 CNS = tested on: SF-295 CNS
# SK-OV-3 ovarian = tested on: SK-OV-3 ovarian
# SK-MEL-2 melanoma = tested on: SK-MEL-2 melanoma
# RPMI-8226 leukemia = tested on: RPMI-8226 leukemia
# COLO 205 colon = tested on: COLO 205 colon
# ACHN renal = tested on: ACHN renal
# DU-145 prostate = tested on: DU-145 prostate
# HL-60(TB) leukemia = tested on: HL-60(TB) leukemia
# SNB-19 CNS = tested on: SNB-19 CNS
# LOX IMVI melanoma = tested on: LOX IMVI melanoma
# UACC-62 melanoma = tested on: UACC-62 melanoma
SMILES,TGI (NCI-H23 lung),TGI (SK-MEL-5 melanoma),TGI (BT-549 breast),TGI (U251 CNS),TGI (PC-3 prostate),TGI (SNB-75 CNS),TGI (MOLT-4 leukemia),TGI (SF-268 CNS),TGI (SF-295 CNS),TGI (SK-OV-3 ovarian),TGI (SK-MEL-2 melanoma),TGI (RPMI-8226 leukemia),TGI (COLO 205 colon),TGI (ACHN renal),TGI (DU-145 prostate),TGI (HL-60(TB) leukemia),TGI (SNB-19 CNS),TGI (LOX IMVI melanoma),TGI (UACC-62 melanoma)
CC(C)=NOC(=O)OC[C@H]1O[C@@H](n2cnc3c(N)ncnc32)C(O)C1O (some centres not stated),> 100 µM,> 100 µM,> 100 µM,> 100 µM,> 100 µM,> 100 µM,> 100 µM,> 100 µM,> 100 µM,> 100 µM,> 100 µM,> 100 µM,> 100 µM,> 100 µM,> 100 µM,> 100 µM,> 100 µM,> 100 µM,–
CCOC(=O)[C@@]1(C(C)=O)CC(C)=C(C)C[S@]1=O,> 100 µM,–,> 100 µM,> 100 µM,> 100 µM,> 100 µM,> 100 µM,> 100 µM,> 100 µM,> 100 µM,> 100 µM,> 100 µM,> 100 µM,> 100 µM,> 100 µM,–,> 100 µM,> 100 µM,> 100 µM
COCN1C(=N)C(C(=O)OC(C)(C)C)=C2C=C(O)C=CC21C (configuration not stated),30.2 µM,28.6 µM,12.8 µM,30.6 µM,30.6 µM,33.6 µM,> 100 µM,29.5 µM,> 100 µM,84 µM,31.9 µM,> 100 µM,17.5 µM,19.6 µM,24.2 µM,83.3 µM,> 100 µM,26.5 µM,29.1 µM
Cc1nc(C)c(N2CCN(S(N)(=O)=O)CC2)c(=O)[nH]1,> 100 µM,> 100 µM,> 100 µM,> 100 µM,> 100 µM,–,> 100 µM,> 100 µM,> 100 µM,> 100 µM,–,> 100 µM,> 100 µM,> 100 µM,> 100 µM,> 100 µM,> 100 µM,> 100 µM,> 100 µM
CCOC(=O)[C@@H](NC(=O)OC(C)(C)C)[C@@H](O)C(=O)OCC,> 100 µM,> 100 µM,> 100 µM,> 100 µM,> 100 µM,> 100 µM,> 100 µM,> 100 µM,> 100 µM,> 100 µM,> 100 µM,> 100 µM,> 100 µM,> 100 µM,> 100 µM,> 100 µM,> 100 µM,> 100 µM,> 100 µM
Cc1nn(C(=O)Cc2ccccc2)c2c1C(c1ccc([N+](=O)[O-])cc1)SC(N)=N2 (configuration not stated),> 100 µM,> 100 µM,> 100 µM,–,> 100 µM,–,> 100 µM,> 100 µM,> 100 µM,> 100 µM,–,> 100 µM,> 100 µM,> 100 µM,> 100 µM,> 100 µM,–,> 100 µM,> 100 µM
CC(=O)C1C(=O)C(C(C)=O)C2C3C=CC(C3)C12 (configuration not stated),> 100 µM,> 100 µM,> 100 µM,> 100 µM,> 100 µM,> 100 µM,> 100 µM,> 100 µM,> 100 µM,> 100 µM,> 100 µM,> 100 µM,> 100 µM,> 100 µM,> 100 µM,> 100 µM,> 100 µM,> 100 µM,> 100 µM
O=S1(=O)c2ccccc2N2C(c3ccccc3)=NOC2(c2ccccc2)CC1c1ccc(Br)cc1 (configuration not stated),> 100 µM,> 100 µM,> 100 µM,> 100 µM,> 100 µM,> 100 µM,> 100 µM,> 100 µM,> 100 µM,> 100 µM,> 100 µM,–,> 100 µM,> 100 µM,> 100 µM,> 100 µM,> 100 µM,> 100 µM,> 100 µM
OCC(O)COCn1cc(Cn2ncc3c(NCc4ccccc4)ncnc32)nn1 (configuration not stated),> 100 µM,> 100 µM,> 100 µM,> 100 µM,> 100 µM,–,> 100 µM,32.8 µM,> 100 µM,> 100 µM,> 100 µM,> 100 µM,> 100 µM,> 100 µM,> 100 µM,> 100 µM,> 100 µM,> 100 µM,> 100 µM
Cn1c2ccccc2c2c3c(c4c5ccccc5n(C5OC(CO)C(O)C(O)C5O)c4c21)C(=O)OC3=O (configuration not stated),> 100 µM,> 100 µM,> 100 µM,> 100 µM,> 100 µM,> 100 µM,> 100 µM,> 100 µM,> 100 µM,> 100 µM,> 100 µM,> 100 µM,> 100 µM,> 100 µM,> 100 µM,–,> 100 µM,> 100 µM,> 100 µM
C=CCc1cccc2cc(C(=O)Nc3ccc(C)cc3)c(=N)oc12,> 100 µM,> 100 µM,> 100 µM,> 100 µM,> 100 µM,> 100 µM,> 100 µM,> 100 µM,–,> 100 µM,> 100 µM,> 100 µM,> 100 µM,> 100 µM,> 100 µM,> 100 µM,> 100 µM,> 100 µM,> 100 µM
O=C(O)c1ccccc1/C=C1/Cc2ccc3c(c2C1=O)CCC3,96 µM,46.2 µM,96.8 µM,> 100 µM,> 100 µM,> 100 µM,> 100 µM,> 100 µM,> 100 µM,–,44.9 µM,57.4 µM,36.3 µM,> 100 µM,> 100 µM,48 µM,> 100 µM,39.5 µM,> 100 µM
COC(=O)C(CC(C)C)NC(=O)C(CCCN=C(N)N)NC(=O)OCc1ccccc1 (stereo not drawn) (Cbz-Arg-Leu-OMe; configuration not given here),> 100 µM,> 100 µM,> 100 µM,> 100 µM,> 100 µM,> 100 µM,> 100 µM,> 100 µM,> 100 µM,> 100 µM,–,> 100 µM,> 100 µM,> 100 µM,> 100 µM,> 100 µM,> 100 µM,> 100 µM,> 100 µM
